# According to PubChem BioAssay (NCI):
# “And” between values parts separate entries of the source, which are not always exact repeats. Equal values may be shown once.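 Exposure lasted 48 hours, with cells grown in 96-well plates and compounds tested at five concentrations. GI50: concentration for 50% inhibition of growth. Definition used: TGI = concentration required for complete inhibition of growth.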
# Experiments:
# Test in all cases: growth of human tumour cells (NCI), 48 h
# RXF 393 renal = tested on: RXF 393 renal
# PC-3 prostate = tested on: PC-3 prostate
# K-562 leukemia = tested on: K-562 leukemia
# CAKI-1 renal = tested on: CAKI-1 renal
# UACC-62 melanoma = tested on: UACC-62 melanoma
# TK-10 renal = tested on: TK-10 renal
# SK-OV-3 ovarian = tested on: SK-OV-3 ovarian
# OVCAR-4 ovarian = tested on: OVCAR-4 ovarian
# NCI-H226 lung = tested on: NCI-H226 lung
# KM12 colon = tested on: KM12 colon
Structure (SMILES),GI50 (RXF 393 renal),TGI (RXF 393 renal),GI50 (PC-3 prostate),TGI (PC-3 prostate),GI50 (K-562 leukemia),TGI (K-562 leukemia),GI50 (CAKI-1 renal),TGI (CAKI-1 renal),GI50 (UACC-62 melanoma),TGI (UACC-62 melanoma),GI50 (TK-10 renal),TGI (TK-10 renal),GI50 (SK-OV-3 ovarian),TGI (SK-OV-3 ovarian),GI50 (OVCAR-4 ovarian),TGI (OVCAR-4 ovarian),GI50 (NCI-H226 lung),TGI (NCI-H226 lung),GI50 (KM12 colon),TGI (KM12 colon)
CC[C@@]1(O)C(=O)NCc2c1cc1n(c2=O)Cc2cc3c(NC(C)=O)cccc3nc2-1,> 100 µM,> 100 µM,> 100 µM,> 100 µM,> 100 µM,> 100 µM,> 100 µM,> 100 µM,> 100 µM,> 100 µM,> 100 µM,> 100 µM,> 100 µM,> 100 µM,> 100 µM,> 100 µM,> 100 µM,> 100 µM,> 100 µM,> 100 µM
O=C1C(Br)=CC2(C=C1Br)CCNc1c(O)c3c4c(c12)=NCCC=4C=N3,,0.217 µM,,0.993 µM,,0.0921 µM,,0.309 µM,,0.233 µM,,0.792 µM,,4.26 µM,,0.211 µM,,2.74 µM,,1.61 µM
COc1cc(/C=C/c2ccccn2)cc(OC)c1OC,,> 10 µM,,> 10 µM,,> 10 µM,,> 10 µM,,> 10 µM,,> 10 µM,,> 10 µM,,> 10 µM,,> 10 µM,,> 10 µM
Cc1cn2c(/C=C3/C(=O)Nc4ccc(Cl)cc43)c(C)nc2s1,6.74 µM,> 100 µM,0.0447 µM,,,> 100 µM,0.741 µM,,0.0411 µM,54.7 µM,2.42 µM,17.5 µM,0.384 µM,24.2 µM,> 39.3 µM,> 54 µM,11 µM,> 90.6 µM,1.17 µM,24 µM
Fc1ccc(-c2c(-c3ccncc3)[nH]c3nccnc23)cc1,3.69 µM,9.8 µM,> 25 µM,> 25 µM,> 25 µM,> 25 µM,4.52 µM,> 19.9 µM,6.33 µM,> 25 µM,5.94 µM,> 21.6 µM,8.25 µM,> 25 µM,> 16.7 µM,> 25 µM,6.76 µM,> 25 µM,8.92 µM,> 25 µM
CS(=O)(=O)N1CCc2c(-c3cnc(N)nc3)nc(N3CCOCC3)nc21,0.605 µM and 0.421 µM,4.04 µM and 3.27 µM,0.279 µM and 0.258 µM,> 5.95 µM and 11 µM,> 6.98 µM and 5.3 µM,> 100 µM,0.484 µM and 0.651 µM,> 10 µM and 7.76 µM,0.28 µM and 0.393 µM,2.24 µM and 2.9 µM,0.197 µM and 0.221 µM,3.25 µM and 4.09 µM,0.128 µM and 0.166 µM,0.692 µM and 1.37 µM,1.21 µM and 0.945 µM,> 25.7 µM,0.52 µM and 0.343 µM,9.45 µM and 12.5 µM,2.1 µM and 2.25 µM,> 100 µM
Nc1ccc(C(=O)Nc2ccccc2N)cc1,,> 100 µM,,> 100 µM,,> 100 µM,,> 100 µM,,39.7 µM,,> 63.1 µM,,> 100 µM,,> 76.5 µM,,> 100 µM,,> 100 µM
COc1ccc(-c2nc3sccn3c2-c2ccnc(NCCCNS(=O)(=O)c3ccc(F)cc3)n2)cc1,3.13 µM,13.1 µM,1.74 µM,6.75 µM,1.43 µM,> 100 µM,2.5 µM,7.29 µM,0.752 µM,2.73 µM,3.92 µM,> 100 µM,3.93 µM,> 100 µM,2.49 µM,8.4 µM,1.59 µM,5.28 µM,2.57 µM,9.24 µM
CC(C)[C@H](C(=O)O[C@@H]1/C=C/C(=O)O[C@@H](C)CCC/C=C/[C@@H]2C[C@H](O)C[C@H]21)N(C)C,3.29 µM,15.6 µM,10.9 µM,> 57.8 µM,23.7 µM,58.1 µM,19.4 µM,> 73.8 µM,16.8 µM,> 89.2 µM,14.7 µM,60.8 µM,17.9 µM,> 96.7 µM,8.7 µM,> 94.5 µM,11.2 µM,44.2 µM,3.65 µM,11 µM
Cc1cc(C#Cc2ccccc2)ccc1-n1c(/C=C/c2cc(O)ccc2O)nc2ccccc2c1=O,1.65 µM,3.72 µM,2.19 µM,8.34 µM,1.42 µM,3.82 µM,2.15 µM,7.24 µM,1.52 µM,2.86 µM,2.03 µM,5.61 µM,1.83 µM,4.61 µM,2.4 µM,8.5 µM,1.52 µM,3.93 µM,1.65 µM,3.07 µM
COc1cccc(/C=C\c2ccnc3ccccc23)c1,,> 10 µM,,> 10 µM,,> 10 µM,,> 10 µM,,> 10 µM,,> 10 µM,,> 10 µM,,> 10 µM,,> 10 µM,,> 10 µM
Cc1c(O)c(Br)c(C)c(O)c1Br (tested in a mixture with another compound),,3.33 µM,,4.23 µM,,11.6 µM,,3.67 µM,,10.8 µM,,3.01 µM,,29.4 µM,,3.04 µM,,14.8 µM,,41.2 µM
N[C@@H](CSSC[C@H](N)C(=O)N1CCn2cc(-c3ccccc3)nc2[C@@H]1CC1CCCCC1)C(=O)N1CCn2cc(-c3ccccc3)nc2[C@@H]1CC1CCCCC1,1.63 µM,3.1 µM,2.91 µM,9.62 µM,1.48 µM,> 100 µM,1.91 µM,4.6 µM,0.843 µM,2.32 µM,2.05 µM,4.45 µM,1.59 µM,5.42 µM,2.15 µM,4.8 µM,2.02 µM,4.09 µM,0.91 µM,2.47 µM
O=C1/C(=C/c2ccccc2[N+](=O)[O-])COc2ccc(O)c(O)c21,0.357 µM,1.46 µM,0.814 µM,4.89 µM,0.428 µM,> 100 µM,0.607 µM,1.99 µM,0.864 µM,2.4 µM,1.22 µM,3.32 µM,3.91 µM,14.3 µM,0.857 µM,2.29 µM,3.97 µM,25.2 µM,1.55 µM,3.72 µM
Cn1cc(C2=C(c3c(S(C)=O)n(C)c4ccccc34)C(=O)NC2=O)c2ccccc21 (configuration not stated),5.42 µM,> 20.7 µM,8.19 µM,> 25 µM,8.89 µM,> 25 µM,6.04 µM,> 25 µM,14.2 µM,> 25 µM,6.26 µM,> 25 µM,7.87 µM,> 25 µM,16.1 µM,> 25 µM,8.04 µM,> 25 µM,7.9 µM,> 25 µM
